From PMC12800093 (Nature Communications, 2025)
Where a SMILES comes first, the peptide text is derived from it. [ ]: non-standard residue; d: D form.

Tested on: Mycobacterium tuberculosis complex (MTBC) clinical isolates
Settings: 96 h

Q: `CC(C)[C@@H](NC(=O)[C@H](N)Cc1c[nH]c2ccccc12)C(=O)N[C@@H](C(=O)N[C@H](Cc1c[nH]c2ccccc12)C(=O)N[C@H](Cc1c[nH]cn1)C(=O)N[C@H](CCCNC(=N)N)C(=O)N[C@H](CCCNC(=N)N)C(=O)N[C@H](Cc1c[nH]c2ccccc12)C(=O)N[C@H](Cc1c[nH]c2ccccc12)C(=O)N[C@H](Cc1c[nH]cn1)C(=O)N[C@H](Cc1c[nH]c2ccccc12)C(=O)N[C@H](CCCNC(=N)N)C(=O)N[C@H](CCCCN)C(N)=O)C(C)C` [MAD1-RI] (H-[dW][dV][dV][dW][dH][dR][dR][dW][dW][dH][dW][dR][dK]-NH2) was tested. Which “MICs against a panel of drug-resistant clinical Mtb isolates” value did it give?
A: ≤ 40 µM
